Key:
BrSK2(h) = target: T1, BrSK2(h) (Homo sapiens, UniProt Q8IWQ3); assay: Upstate kinase activity inhibition assay BrSK2(h); assay type: biochemical; details: 40 min; read-out: percentage of enzyme activity that remains
T1 construct: purchased Upstate (KinaseProfiler service)

BTK(h) = target: T2, BTK(h) (Homo sapiens, UniProt Q06187); assay: Upstate kinase activity inhibition assay BTK(h); assay type: biochemical
T2 construct: purchased Upstate (KinaseProfiler service)

CDK3/cyclinE(h) = target: T3, CDK3/cyclinE(h) (Homo sapiens, UniProt Q00526); assay: Upstate kinase activity inhibition assay CDK3/cyclinE(h); assay type: biochemical; details: 4 μM Compound E
T3 construct: purchased Upstate (KinaseProfiler service)

CDK7/cyclinH/MAT1(h) = target: T4, CDK7/cyclinH/MAT1(h) (Homo sapiens, UniProt P50613); assay: Upstate kinase activity inhibition assay CDK7/cyclinH/MAT1(h); assay type: biochemical; details: 40 min, read-out: percentage of enzyme activity that remains
T4 construct: purchased Upstate (KinaseProfiler service)

EGFR(L858R)(h) = target: T5, EGFR(L858R)(h) (Homo sapiens, UniProt P00533, L858R); assay: Upstate kinase activity inhibition assay EGFR(L858R)(h); assay type: biochemical; details: 4 μM Compound E
T5 construct: purchased Upstate (KinaseProfiler service)

EphA7(h) = target: T6, EphA7(h) (Homo sapiens, UniProt Q15375); assay: Upstate kinase activity inhibition assay EphA7(h); assay type: biochemical; details: 40 min; read-out: percentage of enzyme activity that remains
T6 construct: purchased Upstate (KinaseProfiler service)

Fyn(h) = target: T7, Fyn(h) (Homo sapiens, UniProt P06241); assay: Upstate kinase activity inhibition assay Fyn(h); assay type: biochemical; details: 40 min; read-out: percentage of enzyme activity that remains
T7 construct: purchased Upstate (KinaseProfiler service)

IKKα(h) = target: T8, IKKα(h) (Homo sapiens, UniProt O15111); assay: Upstate kinase activity inhibition assay IKKα(h); assay type: biochemical; details: 40 min; read-out: percentage of enzyme activity that remains
T8 construct: purchased Upstate (KinaseProfiler service)

JNK3(h) = target: T9, JNK3(h) (Homo sapiens, UniProt P53779); assay: Upstate kinase activity inhibition assay JNK3(h); assay type: biochemical
T9 construct: purchased Upstate (KinaseProfiler service)

NEK6(h) = target: T10, NEK6(h) (Homo sapiens, UniProt Q9HC98); assay: Upstate kinase activity inhibition assay NEK6(h); assay type: biochemical; details: 40 min; read-out: percentage of enzyme activity that remains
T10 construct: purchased Upstate (KinaseProfiler service)

PKCβII(h) = target: T11, PKCβII(h) (Homo sapiens, UniProt P05771); assay: Upstate kinase activity inhibition assay PKCβII(h); assay type: biochemical; details: 40 min; read-out: percentage of enzyme activity that remains
T11 construct: purchased Upstate (KinaseProfiler service)

PKCι(h) = PKCι(h) (Homo sapiens, UniProt P41743); assay: Upstate kinase activity inhibition assay PKCι(h); assay type: biochemical; details: 40 min; read-out: percentage of enzyme activity that remains
PKG1β(h) = target: T12, PKG1β(h) (Homo sapiens, UniProt Q13976); assay: Upstate kinase activity inhibition assay PKG1β(h); assay type: biochemical; details: 40 min; read-out: percentage of enzyme activity that remains
T12 construct: purchased Upstate (KinaseProfiler service)

Rsk1(h) = target: T13, Rsk1(h) (Homo sapiens, UniProt Q15418); assay: Upstate kinase activity inhibition assay Rsk1(h); assay type: biochemical; details: 40 min; read-out: percentage of enzyme activity that remains
T13 construct: purchased Upstate (KinaseProfiler service)

SGK(h) = target: T14, SGK(h) (Homo sapiens, UniProt O00141, S422D); assay: Upstate kinase activity inhibition assay SGK(h); assay type: biochemical; details: 40 min; read-out: percentage of enzyme activity that remains
T14 construct: purchased Upstate (KinaseProfiler service)

ARK5(h) = ARK5(h) (Homo sapiens, UniProt O60285); assay: Upstate kinase activity inhibition assay ARK5(h)
SIK(h) = SIK(h) (Homo sapiens, UniProt P57059); assay: Upstate kinase activity inhibition assay SIK(h)
Yes(h) = Yes(h) (Homo sapiens, UniProt P07947); assay: Upstate kinase activity inhibition assay Yes(h); details: 40 min, read-out: percentage of enzyme activity that remains
CHK2(h) = CHK2(h) (Homo sapiens, UniProt O96017); assay: Upstate kinase activity inhibition assay CHK2(h); details: 40 min, read-out: percentage of enzyme activity that remains
Flt4(h) = Flt4(h) (Homo sapiens, UniProt P35916); assay: Upstate kinase activity inhibition assay Flt4(h); details: 40 min, read-out: percentage of enzyme activity that remains
MELK(h) = MELK(h) (Homo sapiens, UniProt Q14680); assay: Upstate kinase activity inhibition assay MELK(h); details: 40 min, read-out: percentage of enzyme activity that remains
NEK3(h) = NEK3(h) (Homo sapiens, UniProt P51956); assay: Upstate kinase activity inhibition assay NEK3(h); details: 40 min, read-out: percentage of enzyme activity that remains
TrkA(h) = TrkA(h) (Homo sapiens, UniProt P04629); assay: Upstate kinase activity inhibition assay TrkA(h); details: 40 min, read-out: percentage of enzyme activity that remains
ZIPK(h) = ZIPK(h) (Homo sapiens, UniProt O43293); assay: Upstate kinase activity inhibition assay ZIPK(h); details: 40 min, read-out: percentage of enzyme activity that remains
MRCKα(h) = MRCKα(h) (Homo sapiens, UniProt Q5VT25); assay: Upstate kinase activity inhibition assay MRCKα(h); details: 40 min, read-out: percentage of enzyme activity that remains
MSSK1(h) = MSSK1(h) (Homo sapiens, UniProt Q9UPE1); assay: Upstate kinase activity inhibition assay MSSK1(h); details: 40 min, read-out: percentage of enzyme activity that remains
CaMKIV(h) = CaMKIV(h) (Homo sapiens, UniProt Q16566); assay: Upstate kinase activity inhibition assay CaMKIV(h); details: 40 min, read-out: percentage of enzyme activity that remains
SAPK4(h) = SAPK4(h) (Homo sapiens, UniProt O15264); assay: Upstate kinase activity inhibition assay SAPK4(h); details: 40 min, read-out: percentage of enzyme activity that remains
SRPK2(h) = SRPK2(h) (Homo sapiens, UniProt P78362); assay: Upstate kinase activity inhibition assay SRPK2(h); details: 40 min, read-out: percentage of enzyme activity that remains
IGF-1R(h) = IGF-1R(h) (Homo sapiens, UniProt P08069); assay: Upstate kinase activity inhibition assay IGF-1R(h); details: 40 min, read-out: percentage of enzyme activity that remains
IGF-1R(h), sequence (P08069 31-1367): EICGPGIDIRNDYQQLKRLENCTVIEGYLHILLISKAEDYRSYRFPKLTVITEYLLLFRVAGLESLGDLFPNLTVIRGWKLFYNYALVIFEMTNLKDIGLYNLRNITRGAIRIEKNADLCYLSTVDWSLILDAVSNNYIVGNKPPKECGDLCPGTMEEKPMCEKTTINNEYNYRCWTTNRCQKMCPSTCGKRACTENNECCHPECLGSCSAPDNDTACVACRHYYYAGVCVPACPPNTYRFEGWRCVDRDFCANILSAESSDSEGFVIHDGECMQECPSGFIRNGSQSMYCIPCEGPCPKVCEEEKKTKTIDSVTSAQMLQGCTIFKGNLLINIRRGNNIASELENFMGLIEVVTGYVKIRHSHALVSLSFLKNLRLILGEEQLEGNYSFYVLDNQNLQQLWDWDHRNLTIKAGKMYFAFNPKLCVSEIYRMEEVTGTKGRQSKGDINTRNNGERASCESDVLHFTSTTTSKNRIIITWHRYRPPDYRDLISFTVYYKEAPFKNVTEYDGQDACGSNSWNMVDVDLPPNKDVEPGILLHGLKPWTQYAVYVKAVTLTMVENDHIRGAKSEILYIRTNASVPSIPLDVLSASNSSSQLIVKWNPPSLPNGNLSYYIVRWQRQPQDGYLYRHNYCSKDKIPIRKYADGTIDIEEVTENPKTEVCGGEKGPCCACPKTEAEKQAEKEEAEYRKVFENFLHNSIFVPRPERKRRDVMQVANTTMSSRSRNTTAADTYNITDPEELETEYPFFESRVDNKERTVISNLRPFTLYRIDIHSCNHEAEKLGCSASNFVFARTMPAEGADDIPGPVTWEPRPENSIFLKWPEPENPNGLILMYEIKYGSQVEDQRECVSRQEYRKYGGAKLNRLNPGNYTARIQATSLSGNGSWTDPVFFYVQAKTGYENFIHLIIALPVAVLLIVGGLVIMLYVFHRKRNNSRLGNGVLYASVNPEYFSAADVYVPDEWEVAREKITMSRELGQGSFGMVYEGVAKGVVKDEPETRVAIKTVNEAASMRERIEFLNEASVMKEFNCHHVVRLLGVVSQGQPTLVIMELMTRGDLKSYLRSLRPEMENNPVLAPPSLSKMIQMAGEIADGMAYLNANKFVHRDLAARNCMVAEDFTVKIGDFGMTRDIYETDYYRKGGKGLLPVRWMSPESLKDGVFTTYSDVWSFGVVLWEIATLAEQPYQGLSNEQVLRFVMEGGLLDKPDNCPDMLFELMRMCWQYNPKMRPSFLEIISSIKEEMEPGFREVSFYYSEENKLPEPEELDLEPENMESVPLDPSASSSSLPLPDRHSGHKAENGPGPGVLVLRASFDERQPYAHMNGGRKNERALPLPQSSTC

T2 sequence (Q06187 whole entry): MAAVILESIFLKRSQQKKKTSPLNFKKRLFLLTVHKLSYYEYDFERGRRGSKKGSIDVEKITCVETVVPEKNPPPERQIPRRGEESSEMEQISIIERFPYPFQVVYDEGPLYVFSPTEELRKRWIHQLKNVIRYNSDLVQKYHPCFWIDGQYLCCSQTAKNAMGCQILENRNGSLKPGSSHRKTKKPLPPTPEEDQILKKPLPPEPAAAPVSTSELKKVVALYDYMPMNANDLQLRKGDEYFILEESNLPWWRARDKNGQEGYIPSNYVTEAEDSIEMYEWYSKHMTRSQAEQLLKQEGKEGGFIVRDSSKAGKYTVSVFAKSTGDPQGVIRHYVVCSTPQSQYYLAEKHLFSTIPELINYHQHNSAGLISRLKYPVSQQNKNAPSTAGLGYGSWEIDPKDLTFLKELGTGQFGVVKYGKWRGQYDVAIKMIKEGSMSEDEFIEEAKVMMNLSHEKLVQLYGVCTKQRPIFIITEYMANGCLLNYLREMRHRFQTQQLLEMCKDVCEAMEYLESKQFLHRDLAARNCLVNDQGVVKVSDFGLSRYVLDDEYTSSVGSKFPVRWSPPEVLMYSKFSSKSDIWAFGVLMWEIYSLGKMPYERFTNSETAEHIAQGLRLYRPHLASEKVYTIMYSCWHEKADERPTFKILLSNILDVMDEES
T8 sequence (O15111 whole entry): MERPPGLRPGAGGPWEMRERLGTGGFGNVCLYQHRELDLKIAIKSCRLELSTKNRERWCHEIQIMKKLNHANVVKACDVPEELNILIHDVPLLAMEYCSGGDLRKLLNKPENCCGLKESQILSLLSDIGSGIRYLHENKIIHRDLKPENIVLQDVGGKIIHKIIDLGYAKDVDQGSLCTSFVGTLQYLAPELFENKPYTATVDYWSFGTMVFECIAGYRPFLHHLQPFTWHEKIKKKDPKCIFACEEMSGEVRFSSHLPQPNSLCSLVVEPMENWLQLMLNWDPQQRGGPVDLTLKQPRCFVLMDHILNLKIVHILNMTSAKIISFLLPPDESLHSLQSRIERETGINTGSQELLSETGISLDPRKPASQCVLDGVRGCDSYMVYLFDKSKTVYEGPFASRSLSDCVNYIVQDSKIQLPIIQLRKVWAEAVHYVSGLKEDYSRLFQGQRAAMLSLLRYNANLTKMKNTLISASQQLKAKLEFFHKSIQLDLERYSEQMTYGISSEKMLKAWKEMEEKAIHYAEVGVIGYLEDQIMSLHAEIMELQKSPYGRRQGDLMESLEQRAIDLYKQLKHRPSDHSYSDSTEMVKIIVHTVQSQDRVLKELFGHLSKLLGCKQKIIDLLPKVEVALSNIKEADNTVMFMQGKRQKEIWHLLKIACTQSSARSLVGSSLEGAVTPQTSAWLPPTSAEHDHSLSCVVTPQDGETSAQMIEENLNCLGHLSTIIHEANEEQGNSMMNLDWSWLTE
Yes(h), sequence (P07947 whole entry): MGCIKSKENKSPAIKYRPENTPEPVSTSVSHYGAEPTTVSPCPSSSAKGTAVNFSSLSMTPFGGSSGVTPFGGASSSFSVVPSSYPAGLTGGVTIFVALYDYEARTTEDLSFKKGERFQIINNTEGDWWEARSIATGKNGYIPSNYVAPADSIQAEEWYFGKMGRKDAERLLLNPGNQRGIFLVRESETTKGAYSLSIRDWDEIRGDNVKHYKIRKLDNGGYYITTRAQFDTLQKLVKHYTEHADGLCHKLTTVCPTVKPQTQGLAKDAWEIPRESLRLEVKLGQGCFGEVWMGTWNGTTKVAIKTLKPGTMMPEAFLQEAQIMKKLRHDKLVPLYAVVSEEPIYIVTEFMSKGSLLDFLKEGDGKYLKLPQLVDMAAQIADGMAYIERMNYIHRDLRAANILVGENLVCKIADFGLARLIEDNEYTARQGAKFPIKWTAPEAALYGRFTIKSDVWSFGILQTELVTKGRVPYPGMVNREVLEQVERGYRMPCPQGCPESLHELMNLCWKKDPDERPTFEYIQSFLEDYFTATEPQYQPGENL
PKCι(h), sequence (P41743 whole entry): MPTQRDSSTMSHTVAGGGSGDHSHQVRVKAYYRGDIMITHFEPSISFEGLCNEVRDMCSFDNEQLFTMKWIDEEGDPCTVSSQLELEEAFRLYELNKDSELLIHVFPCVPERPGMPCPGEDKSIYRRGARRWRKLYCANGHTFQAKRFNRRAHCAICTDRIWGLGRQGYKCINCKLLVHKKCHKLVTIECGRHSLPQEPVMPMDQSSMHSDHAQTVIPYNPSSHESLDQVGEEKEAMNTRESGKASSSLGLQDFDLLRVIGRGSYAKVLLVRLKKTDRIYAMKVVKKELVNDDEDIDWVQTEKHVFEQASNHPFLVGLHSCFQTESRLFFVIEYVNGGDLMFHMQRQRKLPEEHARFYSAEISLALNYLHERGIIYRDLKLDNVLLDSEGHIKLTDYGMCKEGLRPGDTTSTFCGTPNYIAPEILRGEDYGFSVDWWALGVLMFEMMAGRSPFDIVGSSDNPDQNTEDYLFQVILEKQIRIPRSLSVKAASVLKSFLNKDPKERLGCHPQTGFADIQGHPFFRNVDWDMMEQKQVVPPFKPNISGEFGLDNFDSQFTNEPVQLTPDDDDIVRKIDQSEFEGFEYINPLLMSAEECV
T12 sequence (Q13976 1-686 isoform Q13976-2): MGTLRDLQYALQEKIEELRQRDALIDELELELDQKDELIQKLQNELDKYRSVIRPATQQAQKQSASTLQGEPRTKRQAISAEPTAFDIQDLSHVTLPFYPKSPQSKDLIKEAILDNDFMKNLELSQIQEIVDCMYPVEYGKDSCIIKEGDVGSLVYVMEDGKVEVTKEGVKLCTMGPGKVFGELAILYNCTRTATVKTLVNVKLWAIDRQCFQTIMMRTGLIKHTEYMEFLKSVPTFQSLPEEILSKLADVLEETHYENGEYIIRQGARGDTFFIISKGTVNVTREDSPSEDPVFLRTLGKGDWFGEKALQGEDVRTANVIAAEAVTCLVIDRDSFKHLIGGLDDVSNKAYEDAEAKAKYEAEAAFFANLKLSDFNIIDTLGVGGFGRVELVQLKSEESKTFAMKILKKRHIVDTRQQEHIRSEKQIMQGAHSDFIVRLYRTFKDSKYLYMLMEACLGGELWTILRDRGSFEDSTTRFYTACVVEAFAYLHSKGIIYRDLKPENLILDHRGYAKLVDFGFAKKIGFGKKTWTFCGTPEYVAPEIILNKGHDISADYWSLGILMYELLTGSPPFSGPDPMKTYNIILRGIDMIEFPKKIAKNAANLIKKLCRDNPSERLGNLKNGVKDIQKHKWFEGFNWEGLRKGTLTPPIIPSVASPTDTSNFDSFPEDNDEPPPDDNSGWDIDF
NEK3(h), sequence (P51956 whole entry): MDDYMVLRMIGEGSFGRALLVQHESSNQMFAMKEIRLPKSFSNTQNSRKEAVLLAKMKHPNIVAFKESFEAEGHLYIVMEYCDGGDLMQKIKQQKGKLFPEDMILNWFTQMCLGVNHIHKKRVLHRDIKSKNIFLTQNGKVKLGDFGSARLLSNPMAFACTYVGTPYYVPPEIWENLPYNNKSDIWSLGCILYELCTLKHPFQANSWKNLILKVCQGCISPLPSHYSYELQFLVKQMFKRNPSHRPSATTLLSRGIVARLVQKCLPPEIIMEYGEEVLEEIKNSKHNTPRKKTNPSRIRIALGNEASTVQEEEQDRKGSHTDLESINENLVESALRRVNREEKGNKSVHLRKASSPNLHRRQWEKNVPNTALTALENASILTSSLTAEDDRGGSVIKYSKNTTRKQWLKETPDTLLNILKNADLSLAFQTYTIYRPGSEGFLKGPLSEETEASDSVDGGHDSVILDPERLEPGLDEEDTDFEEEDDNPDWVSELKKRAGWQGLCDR

Cc1cc(Nc2cc(N3CCN(C)CC3)nc(Sc3ccc(NC(=O)C4CC4)cc3)n2)n[nH]1 [Compound E, Cyclopropane carboxylic acid {4-[4-(4-methyl-piperazin-1-yl)-6-(5-methyl-2H-pyrazol-3-ylamino)-pyrimidin-2-ylsulphanyl]-phenyl}-amide]
remaining activity at 0.2 µM (BrSK2(h)): 102%
remaining activity at 4 µM (BrSK2(h)): 96%
percentage of enzyme activity that remains (BTK(h); 0.2 μM Compound E): 93%
percentage of enzyme activity that remains (BTK(h); 4 μM Compound E): 49%
percentage of enzyme activity that remains (CDK3/cyclinE(h)): 97%
remaining activity at 0.2 µM (CDK7/cyclinH/MAT1(h)): 113%
remaining activity at 4 µM (CDK7/cyclinH/MAT1(h)): 94%
percentage of enzyme activity that remains (EGFR(L858R)(h)): 77%
remaining activity at 4 µM (EphA7(h)): 78%
remaining activity at 4 µM (Fyn(h)): 4%
remaining activity at 0.2 µM (IKKα(h)): 103%
remaining activity at 4 µM (IKKα(h)): 99%
percentage of enzyme activity that remains (JNK3(h); 0.2 μM Compound E): 94%
percentage of enzyme activity that remains (JNK3(h); 4 μM Compound E): 69%
remaining activity at 0.2 µM (NEK6(h)): 86%
remaining activity at 4 µM (NEK6(h)): 85%
remaining activity at 0.2 µM (PKCβII(h)): 99%
remaining activity at 4 µM (PKCβII(h)): 94%
remaining activity at 0.2 µM (PKCι(h)): 100%
remaining activity at 4 µM (PKCι(h)): 78%
remaining activity at 0.2 µM (PKG1β(h)): 87%
remaining activity at 4 µM (PKG1β(h)): 87%
remaining activity at 4 µM (Rsk1(h)): 89%
remaining activity at 0.2 µM (SGK(h)): 113%
remaining activity at 4 µM (SGK(h)): 109%
percentage of enzyme activity that remains (ARK5(h); 0.2 μM Compound E): 53%
percentage of enzyme activity that remains (ARK5(h); 4 μM Compound E): 11%
percentage of enzyme activity that remains (SIK(h); 0.2 μM Compound E): 95%
percentage of enzyme activity that remains (SIK(h); 4 μM Compound E): 61%
remaining activity at 0.2 µM (Yes(h)): 39%
remaining activity at 4 µM (Yes(h)): 2%
remaining activity at 0.2 µM (CHK2(h)): 99%
remaining activity at 4 µM (CHK2(h)): 89%
remaining activity at 4 µM (Flt4(h)): 10%
remaining activity at 0.2 µM (MELK(h)): 56%
remaining activity at 4 µM (MELK(h)): 13%
remaining activity at 0.2 µM (NEK3(h)): 102%
remaining activity at 4 µM (NEK3(h)): 125%
remaining activity at 0.2 µM (TrkA(h)): 98%
remaining activity at 4 µM (TrkA(h)): 8%
remaining activity at 0.2 µM (ZIPK(h)): 100%
remaining activity at 0.2 µM (MRCKα(h)): 96%
remaining activity at 4 µM (MRCKα(h)): 99%
remaining activity at 0.2 µM (MSSK1(h)): 110%
remaining activity at 4 µM (MSSK1(h)): 108%
remaining activity at 0.2 µM (CaMKIV(h)): 100%
remaining activity at 4 µM (CaMKIV(h)): 99%
remaining activity at 0.2 µM (SAPK4(h)): 96%
remaining activity at 4 µM (SAPK4(h)): 92%
remaining activity at 0.2 µM (SRPK2(h)): 122%
remaining activity at 4 µM (SRPK2(h)): 109%
remaining activity at 0.2 µM (IGF-1R(h)): 76%
remaining activity at 4 µM (IGF-1R(h)): 26%

From patent publication US20090105270A1, “Kinase inhibition and anticancer therapy” (priority 2007, published 2009)
